As usually defined, the IC50 is the concentration at which inhibition is half-maximal. Low values mean inhibition by little substance, high ones a need for much substance.

Molecules are shown by their SMILES. *1 amine or outer side, *2 acyl side, *3 side chain or, on linkers, in order; H or OH if unused. Where a SMILES comes first, the peptide text is derived from it. Bridges are numbered along the chain shown (N, C = ends). Roman numbers before positions name the chains, in order. [ ]: non-standard residue; d: D form. The star is where a group is joined. dAla(N-(6-guanidinohexyl)) = C[C@@H](NCCCCCCNC(=N)N)C(=O)O; DOTA = O=C(O)CN1CCN(CC(=O)O)CCN(CC(=O)*)CCN(CC(=O)O)CC1; X6 = C[C@H](C(=O)[*:2])N(CCCCCCCNC(=O)c1ccc(F)cc1)[*:1]; X14 = C[C@H](C(=O)[*:2])N(CCCCCNC(=O)c1ccc(F)cc1)[*:1]; X8 = C[C@H](C(=O)[*:2])N(CCCCCCNC(=O)c1ccc(F)cc1)[*:1]; X5 = C[C@H](C(=O)[*:2])N(CCCCCCNCc1cccc2ccccc12)[*:1]; X9 = C[C@H](C(=O)[*:2])N(CCCCNC(=O)c1ccc(F)cc1)[*:1]; X4 = C[C@H](C(=O)[*:2])N(CCCCCCNCc1ccccc1)[*:1]; X1 = C[C@@H](C(=O)[*:2])N(CCCCCCNC(=N)N)[*:1]; X7 = CC(=O)NCCCCCCN([C@H](C)C(=O)[*:2])[*:1]; X3 = C[C@H](C(=O)[*:2])N(CCCCCCN[*:3])[*:1]; X10 = C[C@@H](C(=O)[*:2])N(CCCCCCN)[*:1]; X12 = C[C@H](C(=O)[*:2])N(CCCCCCN)[*:1]; X2 = C[C@H](C(=O)[*:2])N(CCCCCCCN)[*:1]; X13 = C[C@H](C(=O)[*:2])N(CCCCCN)[*:1]; 2Nal = N[C@@H](Cc1ccc2ccccc2c1)C(=O)O; Suberoyl = O=C(CCCCCCC(=O)[*:2])[*:1]; X11 = C[C@H](C(=O)[*:2])N(CCCCN)[*:1]; Adipoyl = O=C(CCCCC(=O)[*:2])[*:1]; Gly(N-(CH2)6NH2) = NCCCCCCNCC(=O)O; Suc = O=C(CCC(=O)[*:2])[*:1]

Data on 19 compounds can be found in patent EP2380597A1, “Cyclopeptide derivatives and uses thereof” (Technische Universität München, priority 2010, dated 2011).

For the first experiment, the target named is T1, CXCR4 receptor (Homo sapiens, UniProt P61073).
T1 construct: endogenous in cells; host or cells: Jurkat cells
T1 sequence (P61073 whole entry): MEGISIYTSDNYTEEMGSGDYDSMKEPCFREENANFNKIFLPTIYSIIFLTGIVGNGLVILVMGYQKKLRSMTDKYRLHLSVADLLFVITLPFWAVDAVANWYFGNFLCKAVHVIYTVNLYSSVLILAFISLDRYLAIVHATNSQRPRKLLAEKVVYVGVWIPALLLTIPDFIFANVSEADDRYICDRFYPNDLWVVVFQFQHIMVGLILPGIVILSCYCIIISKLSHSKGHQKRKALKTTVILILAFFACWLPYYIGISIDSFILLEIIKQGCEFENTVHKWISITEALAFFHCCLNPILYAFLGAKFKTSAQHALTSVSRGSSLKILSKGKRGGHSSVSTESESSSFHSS
In words: Receptor binding assay (competition with 125I tracer on Jurkat cells). Conditions: tracer cyclo(-D-Tyr^1 [^125I]-Arg^2-Arg^3-Nal^4-Gly^5), 2 h at room temperature, D-Ala N-hexyl series, R varied. Here is the method: For receptor binding assays cells were resuspended in PBS/0.2 % BSA. A total of 200 µl of the suspension containing 400,000 Jurkat cells were incubated with 25 µl of the tracer solution (containing 100000cpm / 25µl, approx. 0.1 nM) and 25 µl of the diluent or the competitor at different concentrations. For determination of IC50 values, cyclo(-D-Tyr^1 [^125I]-Arg^2-Arg^3-Nal^4-Gly^5) was used as a tracer. Nonspecific binding was determined in the presence of 1 µM cold cyclo(-D-Tyr^1[^127I]-Arg^2-Arg^3-Nal^4-Gly^5). After shaking for 2 h at room temperature, the incubation was terminated by centrifugation at 2000 rpm for 5 min. Cell pellets were washed once with 400µl cold PBS followed by a second centrifugation step. Cell bound radioactivity was determined by using a gamma counter. Experiments were repeated 2-3 times in triplicates. IC50 values of the compounds were calculated by nonlinear regression using GraphPad Prism (GraphPad Prism 4.0 Software, Inc., San Diego, CA, USA). Each data point is the average of three determinations.
In turn, `C[C@@H]1C(=O)N[C@@H](CCCNC(=N)N)C(=O)N[C@@H](Cc2ccc3ccccc3c2)C(=O)NCC(=O)N[C@H](Cc2ccc(O)cc2)C(=O)N1CCCCCCN` [ya(Hex)RNalG] (cyclo([2Nal]G[dY][X12]R)) had an IC50 of 0.3 ± 0.2 nM. On the same count and under the same terms, next, `C[C@@H]1C(=O)N[C@@H](CCCNC(=N)N)C(=O)N[C@@H](Cc2ccc3ccccc3c2)C(=O)NCC(=O)N[C@H](Cc2ccc(O)cc2)C(=O)N1CCCCCCNCc1cccc2ccccc12` [ya(Hex,1 Nap) RNalG, cyclo(-D-Tyr-(α-6-aminohexyl,1-naphthylmethyl)-D-Ala-R-Nal-G)] (cyclo([2Nal]G[dY][X5]R)): 5.1 ± 1.3 nM; `C[C@@H]1C(=O)N[C@@H](CCCNC(=N)N)C(=O)N[C@@H](Cc2ccc3ccccc3c2)C(=O)NCC(=O)N[C@H](Cc2ccc(O)cc2)C(=O)N1CCCCCCNCc1ccccc1` [ya(Hex, Bz) RNalG, cyclo(-D-Tyr-(α-6-aminohexyl, benzyl)-D-Ala-R-Nal-G)] (cyclo([2Nal]G[dY][X4]R)): 4.2 ± 1.4 nM; `C[C@@H]1C(=O)N[C@@H](CCCNC(=N)N)C(=O)N[C@@H](Cc2ccc3ccccc3c2)C(=O)NCC(=O)N[C@H](Cc2ccc(O)cc2)C(=O)N1CCCCCCNC(=O)c1ccc(F)cc1` [ya(Hex, FBz) RNalG, cyclo(-D-Tyr-(α-6-aminohexyl, 4-fluorobenzoic acid)-D-Ala-R-Nal-G)] (cyclo([2Nal]G[dY][X8]R)): 21.4 ± 5.8 nM. On to `C[C@@H]1C(=O)N[C@@H](CCCNC(=N)N)C(=O)N[C@@H](Cc2ccc3ccccc3c2)C(=O)NCC(=O)N[C@H](Cc2ccc(O)cc2)C(=O)N1CCCCCCNC(=N)N` [ya(Hex, Gua) RNalG, cyclo(-D-Tyr-(α-6-guanidinohexyl)-D-Ala-R-Nal-G)] (cyclo([dY][dAla(N-(6-guanidinohexyl))]R[2Nal]G)), for which the IC50 stood at 0.04 ± 0.02 nM. For `CC(=O)NCCCCCCN1C(=O)[C@@H](Cc2ccc(O)cc2)NC(=O)CNC(=O)[C@H](Cc2ccc3ccccc3c2)NC(=O)[C@H](CCCNC(=N)N)NC(=O)[C@H]1C` [ya(Hex,Ac) RNalG, cyclo(-D-Tyr-(α-6-aminohexyl, Ac)-D-Ala-R-Nal-G)] (cyclo([2Nal]G[dY][X7]R)), the IC50 came to 44.1 ± 6.2 nM.

Take `C[C@@H]1C(=O)N[C@@H](CCCNC(=N)N)C(=O)N[C@@H](Cc2ccc3ccccc3c2)C(=O)NCC(=O)N[C@H](Cc2ccc(O)cc2)C(=O)N1CCCCCCNC(=O)CN1CCN(CC(=O)O)CCN(CC(=O)O)CCN(CC(=O)O)CC1` [ya(Hex,DOTA) RNalG, cyclo(-D-Tyr-(α-6-aminohexyl, DOTA)-D-Ala-R-Nal-G)] (cyclo([2Nal]G[dY][X3](DOTA)R)): the IC50 stood at 509.7 ± 0.2 nM.

Still in this experiment, the particulars now being: tracer cyclo(-D-Tyr^1 [^125I]-Arg^2-Arg^3-Nal^4-Gly^5), 2 h at room temperature, Gly analogue.
Regarding `N=C(N)NCCC[C@@H]1NC(=O)CN(CCCCCCN)C(=O)[C@@H](Cc2ccc(O)cc2)NC(=O)CNC(=O)[C@H](Cc2ccc3ccccc3c2)NC1=O` [yG(Hex)RNalG, cyclo(-D-Tyr-(α-6-aminohexyl)-G-R-Nal-G)] (cyclo([2Nal]G[dY][Gly(N-(CH2)6NH2)]R)), the IC50 was 104 nM.

Staying with this experiment, now noted: tracer cyclo(-D-Tyr^1 [^125I]-Arg^2-Arg^3-Nal^4-Gly^5), 2 h at room temperature, L-Ala series.
As to `C[C@H]1C(=O)N[C@@H](CCCNC(=N)N)C(=O)N[C@@H](Cc2ccc3ccccc3c2)C(=O)NCC(=O)N[C@H](Cc2ccc(O)cc2)C(=O)N1CCCCCCN` [yA(Hex)RNalG] (cyclo([2Nal]G[dY][X10]R)), the IC50 is 94.2 ± 38 nM.

Compound `C[C@H]1C(=O)N[C@@H](CCCNC(=N)N)C(=O)N[C@@H](Cc2ccc3ccccc3c2)C(=O)NCC(=O)N[C@H](Cc2ccc(O)cc2)C(=O)N1CCCCCCNC(=N)N` [yA(Hex,Gua)RNa IG, cyclo(-D-Tyr-(α-6-guanidinohexyl)-L-Ala-R-Nal-G)] (cyclo([2Nal]G[dY][X1]R)) registered an IC50 of 4.4 ± 0.3 nM.

Still in this experiment, the particulars now being: tracer cyclo(-D-Tyr^1 [^125I]-Arg^2-Arg^3-Nal^4-Gly^5), 2 h at room temperature, alkyl chain length n varied.
Regarding `C[C@@H]1C(=O)N[C@@H](CCCNC(=N)N)C(=O)N[C@@H](Cc2ccc3ccccc3c2)C(=O)NCC(=O)N[C@H](Cc2ccc(O)cc2)C(=O)N1CCCCN` [ya(But)RNalG, cyclo(-D-Tyr-(α-4-aminobutyl)-D-Ala-R-Nal-G)] (cyclo([2Nal]G[dY][X11]R)), the IC50 was 0.9 ± 0.1 nM.

Compound `C[C@@H]1C(=O)N[C@@H](CCCNC(=N)N)C(=O)N[C@@H](Cc2ccc3ccccc3c2)C(=O)NCC(=O)N[C@H](Cc2ccc(O)cc2)C(=O)N1CCCCNC(=O)c1ccc(F)cc1` [ya(But,FBz)RNalG, cyclo(-D-Tyr-(α-4-aminobutyl, 4-fluorobenzoic acid)-D-Ala-R-Nal-G)] (cyclo([2Nal]G[dY][X9]R)) showed an IC50 of 26 ± 5.7 nM. The same measure, in the same setting: the value for `C[C@@H]1C(=O)N[C@@H](CCCNC(=N)N)C(=O)N[C@@H](Cc2ccc3ccccc3c2)C(=O)NCC(=O)N[C@H](Cc2ccc(O)cc2)C(=O)N1CCCCCCCN` [ya(Hept)RNalG, cyclo(-D-Tyr-(α-7-aminoheptyl)-D-Ala-R-Nal-G)] (cyclo([2Nal]G[dY][X2]R)) was 2.4 ± 0.8 nM; that for `C[C@@H]1C(=O)N[C@@H](CCCNC(=N)N)C(=O)N[C@@H](Cc2ccc3ccccc3c2)C(=O)NCC(=O)N[C@H](Cc2ccc(O)cc2)C(=O)N1CCCCCCCNC(=O)c1ccc(F)cc1` [ya(Hept,FBz)RNalG, cyclo(-D-Tyr-(α-7-aminoheptyl, 4-fluorobenzoic acid)-D-Ala-R-Nal-G)] (cyclo([dY][X6]R[2Nal]G)) was 16.5 ± 3.1 nM; that for `C[C@@H]1C(=O)N[C@@H](CCCNC(=N)N)C(=O)N[C@@H](Cc2ccc3ccccc3c2)C(=O)NCC(=O)N[C@H](Cc2ccc(O)cc2)C(=O)N1CCCCCN` [ya(Pent)RNalG, cyclo(-D-Tyr-(α-5-aminopentyl)-D-Ala-R-Nal-G)] (cyclo([2Nal]G[dY][X13]R)) was 1.6 ± 0.3 nM. The compound `C[C@@H]1C(=O)N[C@@H](CCCNC(=N)N)C(=O)N[C@@H](Cc2ccc3ccccc3c2)C(=O)NCC(=O)N[C@H](Cc2ccc(O)cc2)C(=O)N1CCCCCNC(=O)c1ccc(F)cc1` [ya(Pent, FBz)RNalG, cyclo(-D-Tyr-(α-5-aminopentyl, 4-fluorobenzoic acid)-D-Ala-R-Nal-G)] (cyclo([2Nal]G[dY][X14]R)) gave an IC50 of 34.2 ± 9.3 nM.

The experiment is the same for the next values; noted with them: tracer cyclo(-D-Tyr^1 [^125I]-Arg^2-Arg^3-Nal^4-Gly^5), 2 h at room temperature, dimers.
`C[C@@H]1C(=O)N[C@@H](CCCNC(=N)N)C(=O)N[C@@H](Cc2ccc3ccccc3c2)C(=O)NCC(=O)N[C@H](Cc2ccc(O)cc2)C(=O)N1CCCCCCNC(=O)CCC(=O)NCCCCCCN1C(=O)[C@@H](Cc2ccc(O)cc2)NC(=O)CNC(=O)[C@H](Cc2ccc3ccccc3c2)NC(=O)[C@H](CCCNC(=N)N)NC(=O)[C@H]1C` [Dimer 4, ya(Hex)RNalG butan-1,4-diacid dimer] (I: cyclo([2Nal]G[dY][X3]R) / II: cyclo([2Nal]G[dY][X3]R); linker I:4-II:4 via Suc) showed a half-maximal inhibitory concentration (IC50) of 5.5 ± 1.4 nM.

As to `C[C@@H]1C(=O)N[C@@H](CCCNC(=N)N)C(=O)N[C@@H](Cc2ccc3ccccc3c2)C(=O)NCC(=O)N[C@H](Cc2ccc(O)cc2)C(=O)N1CCCCCCNC(=O)CCCCC(=O)NCCCCCCN1C(=O)[C@@H](Cc2ccc(O)cc2)NC(=O)CNC(=O)[C@H](Cc2ccc3ccccc3c2)NC(=O)[C@H](CCCNC(=N)N)NC(=O)[C@H]1C` [Dimer 6, ya(Hex)RNalG hexan-1,6-diacid dimer] (I: cyclo([2Nal]G[dY][X3]R) / II: cyclo([2Nal]G[dY][X3]R); linker I:4-II:4 via Adipoyl), the IC50 worked out at 7.8 ± 3.1 nM. In turn, `C[C@@H]1C(=O)N[C@@H](CCCNC(=N)N)C(=O)N[C@@H](Cc2ccc3ccccc3c2)C(=O)NCC(=O)N[C@H](Cc2ccc(O)cc2)C(=O)N1CCCCCCNC(=O)CCCCCCC(=O)NCCCCCCN1C(=O)[C@@H](Cc2ccc(O)cc2)NC(=O)CNC(=O)[C@H](Cc2ccc3ccccc3c2)NC(=O)[C@H](CCCNC(=N)N)NC(=O)[C@H]1C` [Dimer 8, ya(Hex)RNalG octan-1,8-diacid dimer] (I: cyclo([2Nal]G[dY][X3]R) / II: cyclo([2Nal]G[dY][X3]R); linker I:4-II:4 via Suberoyl) returned an IC50 of 15.9 ± 10.6 nM.
